Data published in paper PMC3098219, “Protective Efficacy of Serially Up-Ranked Subdominant CD8^+ T Cell Epitopes against Virus Challenges” (PLoS Pathogens, 2011).

Assays:
[1] = test system: CD8^+ splenocytes of immunized mice; assay type: cell-based, BALB/c mice; conditions: HIVAdH vs HIVA immunization; ex vivo ICS, Figure 1D
[2] = test system: splenocytes of DNA-immunized mice; experiment: IFN-γ ELISPOT and ICS with modified HIVA immunogens; assay type: cell-based, BALB/c mice; conditions: dHmP-immunized group; ELISPOT, ICS and in vivo killing
From the text: To further investigate this phenomenon, we serially inactivated CD8^+ T cell epitopes in the order of their immunodominance. To maintain the HIVA protein integrity, epitopes P and G1 were mutated rather than deleted by substituting the anchor amino acid residues required for a strong binding to the H-2K^d molecule (Figure 2A). The resulting double and triple mutants of the HIVA immunogen were called dHmP and dHmPG1, respectively. […] Groups of BALB/c mice were immunized 2x using the modified HIVA immunogens vectored by plasmid DNA and the immune responses were measured in IFN-γ ELISPOT, ICS and in vivo killing assays. […] Second, consistently in all three assays, immune responses directed against subdominant epitopes were serially recovered, however, not to the same extent. […] Because the response to the G2 epitope remained undetectable even in the dHmPG1-immunized mice, overlapping 15/11 peptides across the whole HIVA immunogen were used again to search for another yet unidentified epitope of a higher rank. […] (Figure 2D). […] Thus, step-wise deletion of immunodominant CD8^+ T cell epitopes restores responses to the subdominant epitopes in the hierarchy.
Figure 2 Serial up-ranking of epitopes. A) Groups of 4 BALB/c mice were immunized 2x i.m. with 100 µg of DNA at a 2-wk interval. Two wk later, splenocytes were assessed in an ELISPOT assay for production of IFN-γ upon re-stimulation with peptides indicated above. Shown are schematic diagrams of HIVA and the three modified immunogens with representative examples of the ELISPOT well images. B) Mice were immunized as in A and 4 wk later, splenocytes were assessed in an ICS assay to measure CD8^+ T cells secreting IFN-γ upon re-stimulation with peptide indicated in the top left corner. Group means±SD are shown. C) Identical groups of mice were assessed for cytolytic activity in an in vivo lysis of syngeneic peptide-pulsed cells transferred into naïve or vaccinated animals. Representative examples of dot plots are shown (top) and the peptide-specific lyses are expressed as a group mean±SD (bottom). D) Groups of 3 BALB/c mice were immunized 3x with 100 µg of DNA indicated above the dot plot in 2-wk intervals and the designated NPP peptide-specific responses were assessed by IFN-γ ICS 2 wk later. The FACS plots are representative examples with IFN-γ producing cells as a percentage of CD8^+ splenocytes shown in the top right panels. All experiments were repeated at least once. TEXT PRINTED IN THE PICTURE: (D) HIVA: 0.05 | (D) HIVAdH: 0.09 | (D) dHmP: 0.08 | (D) dHmPG1: 0.57 DOUBTS OF THE COPYIST ABOUT THIS PICTURE: Panel D: the numbers in the top right quadrants of the CD8 / IFN-γ dot plots are printed without a measure or unit, so they are copied as bare numbers.
The ELISPOT assay was performed using the Mouse IFN-γ ELISpot kit (Mabtech) according to the manufacturer's instructions. Spots were visualised using sequential applications of a biotin-conjugated secondary anti-IFN-γ mAb (R4-6A2, Rat IgG1), an alkaline phosphatase and a chromogenic substrate (Bio-Rad) and counted using the AID ELISpot Reader System (Autoimmun Diagnostika).

AMQMLKDTI [G1, H-2K^d-restricted, Gag residues 197–205]
frequencies of IFN-γ-producing CD8^+ cells [1]: noticeably, though not significantly increased
restoration of G1-specific T cell responses [2]: significant restoration of G1-specific T cell responses, now comparable to those against H and restored P
